Test results as given in patent US20230416256A1, “SMALL MOLECULE INHIBITORS OF NF-kB INDUCING KINASE” (Janssen Pharmaceutica NV, priority 2020, published 2023).
Where two headings read alike, the source gives them in different places.

Experiments:
[1] = molecular target: recombinant human NF-kappaB-inducing kinase (NIK/MAP3K14) (Homo sapiens, UniProt Q99558); assay: Inhibition of auto-phosphorylation of recombinant human NIK/MAP3K14 activity (AlphaScreen); type: biochemical; conditions: GST-tagged NIK/MAP3K14 1 nM, 5 μM ATP, 2 h at 25° C.; average of values obtained
Sequence of recombinant human NF-kappaB-inducing kinase (NIK/MAP3K14) (Q99558 whole entry): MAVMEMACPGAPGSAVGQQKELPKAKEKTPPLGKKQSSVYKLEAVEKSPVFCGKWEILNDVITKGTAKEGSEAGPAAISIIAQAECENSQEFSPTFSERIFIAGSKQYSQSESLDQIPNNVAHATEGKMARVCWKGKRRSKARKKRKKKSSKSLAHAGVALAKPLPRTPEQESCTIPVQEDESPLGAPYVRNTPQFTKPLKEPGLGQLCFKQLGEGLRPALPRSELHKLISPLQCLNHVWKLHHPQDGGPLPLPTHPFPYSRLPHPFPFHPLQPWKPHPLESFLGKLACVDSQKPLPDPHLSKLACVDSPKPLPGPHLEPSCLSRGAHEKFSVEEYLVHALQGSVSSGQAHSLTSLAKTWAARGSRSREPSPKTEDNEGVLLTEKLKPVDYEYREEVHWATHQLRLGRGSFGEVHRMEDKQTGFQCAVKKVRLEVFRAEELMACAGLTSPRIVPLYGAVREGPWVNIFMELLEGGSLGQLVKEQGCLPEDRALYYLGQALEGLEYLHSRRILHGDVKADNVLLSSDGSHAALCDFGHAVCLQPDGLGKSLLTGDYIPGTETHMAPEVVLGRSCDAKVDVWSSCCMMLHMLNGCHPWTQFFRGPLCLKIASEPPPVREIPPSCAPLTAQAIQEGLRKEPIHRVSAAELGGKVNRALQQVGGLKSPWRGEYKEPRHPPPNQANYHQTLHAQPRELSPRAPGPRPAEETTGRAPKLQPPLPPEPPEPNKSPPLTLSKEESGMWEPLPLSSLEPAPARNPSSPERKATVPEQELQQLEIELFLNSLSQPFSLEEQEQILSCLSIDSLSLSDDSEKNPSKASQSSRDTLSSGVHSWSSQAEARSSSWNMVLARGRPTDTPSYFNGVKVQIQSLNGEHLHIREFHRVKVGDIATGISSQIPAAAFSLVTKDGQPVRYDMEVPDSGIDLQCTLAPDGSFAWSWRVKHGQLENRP
Protocol: Inhibition of Auto-Phosphorylation of Recombinant Human NF-kappaB-Inducing Kinase (NIK/MAP3K14) Activity (AlphaScreen®)
NIK/MAP3K14 auto-phosphorylation activity was measured using the AlphaScreen® (αscreen) format (Perkin Elmer). All compounds tested were dissolved in dimethyl sulfoxide (DMSO) and further dilutions were made in assay buffer. The final DMSO concentration was 0.7% (v/v) in assays. The assay buffer was 50 mM Tris pH 7.5 containing 1 mM EGTA (ethylene glycol tetraacetic acid), 1 mM DTT (dithiothreitol), 0.1 mM Na3VO4, 5 mM MgCl2, and 0.01% Tween® 20. The assays were carried out in 384 well Proxiplates (Perkin Elmer). The incubations consisted of the compound, 5 μM Adenosine-5′-triphosphate (ATP), and 1 nM NIK/MAP3K14. Incubations were initiated by the addition of GST-tagged NIK/MAP3K14 enzyme, carried out for 2 h at 25° C. and terminated by addition of stop buffer containing anti-phospho-IKK Ser176/180 antibody. Protein A Acceptor and Glutathione-Donor beads were added before reading using an EnVision Multilabel Plate Reader (Perkin Elmer). The signal obtained in the wells was normalized using high (full enzyme activity, 0.7% DMSO) and low controls (no enzyme activity, 0.7% DMSO, no ATP). IC50's were determined by fitting a sigmoidal curve to % inhibition of control versus Log10 compound concentration.

[2] = system: p-IKKα levels in L363 (NIK translocated multiple myeloma) cells; assay: Effect of compounds on p-IKKα levels in L363 cells (AlphaLISA SureFire Ultra); type: cell-based, human; conditions: Homo sapiens, 10 μM MG132, 6 h, average of values obtained, read-out: Assay 2 IC50
Protocol: Effect of Compounds on p-IKKα Levels in L363 (NIK Translocated Multiple Myeloma) Cells
All compounds tested were dissolved and serially diluted in DMSO, 1:3 dilution for 11 points in an Echo compatible plate. 100% DMSO was added to columns 12 and 24 of the plate to serve as high and low signal controls. This compound plate was used to spot 20 nL of compound or DMSO into a Greiner 384 well TC plate (781080). The final DMSO concentration was 0.3% (v/v) in cell assays. Human L363 cells (ATCC) were cultured in RPMI1640 medium supplemented with GlutaMax, non-essential amino acids, sodium pyruvate and 10% fetal bovine serum. Cells were routinely maintained at densities of […]-2×10^6 cells per mL at 37° C. in a humidified 5% CO2 atmosphere incubator. Cells were passaged twice a week splitting back to obtain the low density. The day before the assay, cells were washed twice in HBSS (Hank's Balanced Salt Solution), resuspended in Dulbecco's Modified Eagle Medium (DMEM)+0.5% IgG and protease free BSA (Jackson Immuno Research Laboratories), +/−250 ng/ml recombinant human B-cell activating factor (BAFF/BLyS/TNFSF13B) and incubated overnight at 37° C. in a humidified 5% CO2 atmosphere (bulk stimulation with or without BAFF). The next day, the cell concentration was adjusted to 1×10^7 cells/ml in DMEM+/−250 ng/ml BAFF+/10 μM MG132 and plated at […] into compound or DMSO spotted 384 well TC plates. Seeded cells were incubated at 37° C. in a humidified 5% CO2 atmosphere for 6 h. After 6 h, the plates were removed from the incubator and cell lysis was achieved by the addition of 2.5 μl 5×lysis buffer containing protease and phosphatase inhibitors, followed by shaking on a plate shaker at room temperature for 15 min. At the end of this incubation, lysed cells were sequentially treated and incubated with acceptor and donor bead mixes according to the manufacturer's protocol for a 1 plate/2-incubation suspension cell assay (AlphaLISA SureFire Ultra p-IKKa (Ser 176/180) Assay Kit (Perkin Elmer). Plates were read using an EnVision Multilabel Plate Reader (Perkin Elmer). Within an experiment, a concentration response curve for each compound was run in duplicate. The signal obtained in the test wells was normalized using high signal (BAFF stimulated cells, DMSO, MG132) and low signal (unstimulated cells, DMSO) controls. To determine the IC50, a sigmoidal curve was fitted to the plot of % inhibition versus Log10 compound concentration.

[3] = L-363, 6 h, 250 ng/ml BAFF stimulated
[4] = L-363, 250 ng/ml BAFF stimulated

| IC50 [1] [nM] | IC50 [2, 3] [nM] | Structure (SMILES) | IC50 [2, 4] [nM] |
| --- | --- | --- | --- |
| ≤ 100 | > 500 | O[C@@]1(c2cccc(-c3csc(-c4c[nH]c5ncccc45)n3)c2)C=Cc2cccnc21 (single isomer, unassigned) [Example 33] | – |
| > 500 | > 500 | O[C@]1(c2cccc(-c3csc(-c4c[nH]c5ncccc45)n3)c2)C=Cc2cccnc21 (single isomer, unassigned) [Example 34] | – |
| > 500 | > 500 | CC1(C)Cc2cccnc2[C@@]1(O)c1cccc(-c2csc(-c3c[nH]c4ncccc34)n2)c1 (single isomer, unassigned) [Example 35] | – |
| ≤ 100 | > 500 | CC1(C)Cc2cccnc2[C@]1(O)c1cccc(-c2csc(-c3c[nH]c4ncccc34)n2)c1 (single isomer, unassigned) [Example 36] | – |
| > 500 | > 500 | C[C@@](O)(c1cccc(-c2csc(-c3c[nH]c4ncccc34)n2)c1)c1ccccn1 (single isomer, unassigned) [Example 60] | – |
| > 500 | > 500 | C[C@](O)(c1cccc(-c2csc(-c3c[nH]c4ncccc34)n2)c1)c1ccccn1 (single isomer, unassigned) [Example 61] | – |
| > 500 | > 500 | C[C@](O)(c1cccc(-c2csc(-c3c[nH]c4ncccc34)n2)c1)c1nccs1 (single isomer, unassigned) [Example 64] | – |
| ≤ 100 | > 500 | C[C@@](O)(c1cccc(-c2csc(-c3c[nH]c4ncccc34)n2)c1)c1nccs1 (single isomer, unassigned) [Example 65] | – |
| > 500 | > 500 | C[C@@](O)(c1cccc(-c2csc(-c3c[nH]c4nccnc34)n2)c1)c1ncc[nH]1 (single isomer, unassigned) [Example 77] | – |
| > 500 | > 500 | C[C@](O)(c1cccc(-c2csc(-c3c[nH]c4nccnc34)n2)c1)c1ncc[nH]1 (single isomer, unassigned) [Example 78] | – |
| > 500 | > 500 | Cn1ccnc1[C@@](C)(O)c1cccc(-c2csc(-c3c[nH]c4ncccc34)n2)c1 (single isomer, unassigned) [Example 79] | – |
| > 500 | > 500 | C[C@@](O)(c1cccc(-c2csc(-c3c[nH]c4ncccc34)n2)c1)c1ncc[nH]1 (single isomer, unassigned) [Example 80] | – |
| > 500 | > 500 | O[C@H]1C[C@@](O)(c2cccc(-c3csc(-c4c[nH]c5ncccc45)n3)c2)c2ncccc21 (single isomer, unassigned) [Example 103] | – |
| > 500 | > 500 | O[C@@H]1C[C@](O)(c2cccc(-c3csc(-c4c[nH]c5ncccc45)n3)c2)c2ncccc21 (single isomer, unassigned) [Example 104] | – |

Continued, compound first:

| Structure (SMILES) | IC50 [1] [nM] | IC50 [2, 3] [nM] | IC50 [2, 4] [nM] |
| --- | --- | --- | --- |
| O[C@]1(c2cccc(-c3csc(-c4c[nH]c5ncccc45)n3)c2)CCc2cccnc21 (single isomer, unassigned) [Example 1] | > 500 | > 500 | – |
| O[C@@]1(c2cccc(-c3csc(-c4c[nH]c5ncccc45)n3)c2)CCc2cccnc21 (single isomer, unassigned) [Example 2] | ≤ 100 | 100 to 500 | – |
| CN1CC[C@@](O)(c2cccc(-c3cnc(-c4c[nH]c5ncccc45)s3)c2)C1=O (single isomer, unassigned) [Example 3] | 100 to 500 | – | > 500 |
| CN1CC[C@](O)(c2cccc(-c3cnc(-c4c[nH]c5ncccc45)s3)c2)C1=O (single isomer, unassigned) [Example 4] | > 500 | – | > 500 |
| O[C@@]1(c2cccc(-c3csc(-c4c[nH]c5ncncc45)n3)c2)CCc2cccnc21 (single isomer, unassigned) [Example 5] | ≤ 100 | 100 to 500 | – |
| O[C@]1(c2cccc(-c3csc(-c4c[nH]c5ncncc45)n3)c2)CCc2cccnc21 (single isomer, unassigned) [Example 6] | 100 to 500 | > 500 | – |
| O[C@@]1(c2cccc(-c3nc(-c4c[nH]c5ncccc45)cs3)c2)CCc2cccnc21 (single isomer, unassigned) [Example 22] | ≤ 100 | 100 to 500 | – |
| O[C@]1(c2cccc(-c3nc(-c4c[nH]c5ncccc45)cs3)c2)CCc2cccnc21 (single isomer, unassigned) [Example 23] | 100 to 500 | > 500 | – |
| O[C@]1(c2cccc(-c3csc(-c4c[nH]c5ncccc45)n3)c2)CCc2scnc21 (single isomer, unassigned) [Example 31] | 100 to 500 | > 500 | – |
| O[C@@]1(c2cccc(-c3csc(-c4c[nH]c5ncccc45)n3)c2)CCc2scnc21 (single isomer, unassigned) [Example 32] | ≤ 100 | ≤ 100 | – |
| O[C@]1(c2cccc(-c3csc(-c4c[nH]c5ncccc45)n3)c2)CCCn2ccnc21 (single isomer, unassigned) [Example 37] | > 500 | > 500 | – |
| O[C@@]1(c2cccc(-c3csc(-c4c[nH]c5ncccc45)n3)c2)CCCn2ccnc21 (single isomer, unassigned) [Example 38] | ≤ 100 | ≤ 100 | – |
| CN1CC[C@](O)(c2cccc(-c3csc(-c4c[nH]c5nccnc45)n3)c2)C1=O (single isomer, unassigned) [Example 39] | > 500 | – | > 500 |
| CN1CC[C@@](O)(c2cccc(-c3csc(-c4c[nH]c5nccnc45)n3)c2)C1=O (single isomer, unassigned) [Example 40] | ≤ 100 | – | 100 to 500 |
| CN1CC[C@@](O)(c2cccc(-c3csc(-c4c[nH]c5ncccc45)n3)c2)C1=O (single isomer, unassigned) [Example 47] | ≤ 100 | – | 100 to 500 |
| CN1CC[C@](O)(c2cccc(-c3csc(-c4c[nH]c5ncccc45)n3)c2)C1=O (single isomer, unassigned) [Example 48] | > 500 | – | > 500 |
| CN1CC[C@](O)(c2cccc(-c3csc(-c4c[nH]c5ncncc45)n3)c2)C1=O (single isomer, unassigned) [Example 52] | 100 to 500 | – | > 500 |
| O=C1Nc2cccnc2[C@]1(O)c1cccc(-c2csc(-c3c[nH]c4ncccc34)n2)c1 (single isomer, unassigned) [Example 89] | > 500 | – | > 500 |
| O=C1Nc2cccnc2[C@@]1(O)c1cccc(-c2csc(-c3c[nH]c4ncccc34)n2)c1 (single isomer, unassigned) [Example 90] | > 500 | – | > 500 |
| CN1CC[C@@](O)(c2cccc(-c3nc(-c4c[nH]c5ncccc45)sc3F)c2)C1=O (single isomer, unassigned) [Example 99] | ≤ 100 | – | > 500 |
| O[C@@H]1C[C@@](O)(c2cccc(-c3csc(-c4c[nH]c5ncccc45)n3)c2)c2ncccc21 (single isomer, unassigned) [Example 101] | 100 to 500 | > 500 | – |
| O[C@H]1C[C@](O)(c2cccc(-c3csc(-c4c[nH]c5ncccc45)n3)c2)c2ncccc21 (single isomer, unassigned) [Example 102] | > 500 | > 500 | – |
